According to US11098052B2, “4-azapodophylotoxins compounds” (Arizona Board of Regents on behalf of Arizona State …, priority 2016, dated 2021):
In brackets after ≈: the same amount, converted by molar mass. Where two headings read alike, the source gives them in different places.

What was measured:
[1] = tested on: P388 murine lymphocytic leukemia cell line; assay: Murine P388 lymphocytic leukemia inhibitory activity; assay type: cell-based; conditions: Mus musculus
[2] = tested on: BXPC-3 (pancreas); assay: Human cancer cell growth inhibition, sulforhodamine B assay, BXPC-3; assay type: cell-based; conditions: read-out: Growth Inhibition of Human Cancer Cell Lines (GI50), BXPC-3
Experimental: (§1) Cancer Cell Line Procedures. The human cancer cell growth inhibition data were determined using the standard sulforhodamine B assay of the US National Cancer Institute as previously described.^35 In short, cells in a 5% fetal bovine serum/RPMI1640 medium were inoculated in 96-well plates and incubated for 24 h. Next, serial dilutions of the samples were added. After 48 h, the plates were fixed with trichloroacetic acid, stained with sulforhodamine B, and read with an automated microplate reader. A growth inhibition of 50% (GI50 or the drug concentration causing a 50% reduction in the net protein increase) was determined from optical density data employing Immunosoft® software.

[3] = tested on: MCF-7 (breast); assay: Human cancer cell growth inhibition, sulforhodamine B assay, MCF-7; assay type: cell-based; conditions: read-out: Growth Inhibition of Human Cancer Cell Lines (GI50), MCF-7
Experimental: as §1

[4] = tested on: SF-268 (CNS); assay: Human cancer cell growth inhibition, sulforhodamine B assay, SF-268; assay type: cell-based; conditions: read-out: Growth Inhibition of Human Cancer Cell Lines (GI50), SF-268
Experimental: as §1

[5] = tested on: NCI-H460 (lung); assay: Human cancer cell growth inhibition, sulforhodamine B assay, NCI-H460; assay type: cell-based; conditions: read-out: Growth Inhibition of Human Cancer Cell Lines (GI50), NCI-H460
Experimental: as §1

[6] = tested on: KM20L2 (colon); assay: Human cancer cell growth inhibition, sulforhodamine B assay, KM20L2; assay type: cell-based; conditions: read-out: Growth Inhibition of Human Cancer Cell Lines (GI50), KM20L2
Experimental: as §1

[7] = tested on: DU-145 (prostate); assay: Human cancer cell growth inhibition, sulforhodamine B assay, DU-145; assay type: cell-based; conditions: read-out: Growth Inhibition of Human Cancer Cell Lines (GI50), DU-145
Experimental: as §1

[8] = tested on: P388 murine lymphocytic leukemia cell line; conditions: footnote c: See Ref 25; cited from earlier work
[9] = P388, read-out: Murine P388 Lymphocytic Leukemia Inhibitory Activity (ED50)
[10] = P388 cell line, read-out: Murine P388 Lymphocytic Leukemia Inhibitory Activity (ED50)
[11] = BXPC-3 pancreas, 48 h, sulforhodamine B
[12] = MCF7, MCF-7 breast, 48 h, sulforhodamine B
[13] = SF-268 CNS, 48 h, sulforhodamine B
[14] = NCI-H460 lung, 48 h, sulforhodamine B
[15] = KM-20L2, KM20L2 colon, 48 h, sulforhodamine B
[16] = DU-145 prostate, 48 h, sulforhodamine B

Row | IC50 [1, 10] [µg/mL] | GI50 [2, 11] [µg/mL] | GI50 [3, 12] [µg/mL] | GI50 [4, 13] [µg/mL] | GI50 [5, 14] [µg/mL] | GI50 [6, 15] [µg/mL] | GI50 [7, 16] [µg/mL] | Compound | IC50 [1, 9] [µg/mL] | GI50 ([2]; BXPC-3, 48 h) [µg/mL] | GI50 ([3]; MCF7, 48 h) [µg/mL] | GI50 ([4]; SF-268, 48 h) [µg/mL] | GI50 ([5]; NCI-H460, 48 h) [µg/mL] | GI50 ([6]; KM-20L2, 48 h) [µg/mL] | GI50 ([7]; DU-145, 48 h) [µg/mL] | melting point | Murine P388 Lymphocytic Leukemia Inhibitory Activity (ED50) [8] [µg/mL]
1 | – | – | – | – | – | – | – | COc1cc(C2C3=C(COC3=O)N(CCc3ccc(F)cc3)c3cc4c(cc32)OCO4)cc(OC)c1OC (stereo not drawn) [Compound 25, 6,7-Methylenedioxy-4-[2-(4-fluorophenyl)-ethyl]-9-(3,4,5-trimethoxyphenyl)-4,9-dihydro-3H-furo[3,4-b]quinolin-1-one] | 3.3 (≈ 6.35 µM) | 0.9 (≈ 1.73 µM) | 0.42 (≈ 0.808 µM) | 0.52 (≈ 1 µM) | 2.3 (≈ 4.43 µM) | 2.4 (≈ 4.62 µM) | 2.5 (≈ 4.81 µM) | 174 to 177 °C | –
2 | – | – | – | – | – | – | – | COc1cc(C2C3=C(COC3=O)N(CCCn3ccnc3)c3cc4c(cc32)OCO4)cc(OC)c1OC (stereo not drawn) [Compound 28, 6,7-Methylenedioxy-4-(3-imidazol-1-yl-propyl)-9-(3,4,5-trimethoxyphenyl)-4,9-dihydro-3H-furo[3,4-b]quinolin-1-one] | 2 (≈ 3.96 µM) | 2.9 (≈ 5.74 µM) | 0.64 (≈ 1.27 µM) | 2.5 (≈ 4.95 µM) | 3 (≈ 5.93 µM) | 2.2 (≈ 4.35 µM) | 2.1 (≈ 4.15 µM) | 206 °C (dec.) | –
3 | 1.7 (≈ 3.34 µM) | 4.4 (≈ 8.65 µM) | > 10 | > 10 | > 10 | > 10 | > 10 | COc1cc(C2C3=C(COC3=O)N(CCN3CCCCC3)c3cc4c(cc32)OCO4)cc(OC)c1OC (stereo not drawn) [Compound 21, 6,7-Methylenedioxy-4-(2-piperidin-1-yl-ethyl)-9-(3,4,5-trimethoxyphenyl)-4,9-dihydro-3H-furo[3,4-b]quinolin-1-one] | – | – | – | – | – | – | – | 170 °C (dec.) | –
4 | – | – | – | – | – | – | – | COc1cc(C2C3=C(COC3=O)N(CCc3ccccn3)c3cc4c(cc32)OCO4)cc(OC)c1OC (stereo not drawn) [Compound 24, 6,7-Methylenedioxy-4-(2-pyridin-2-yl-ethyl)-9-(3,4,5-trimethoxyphenyl)-4,9-dihydro-3H-furo[3,4-b]quinolin-1-one] | 2.5 (≈ 4.97 µM) | 0.38 (≈ 0.756 µM) | 0.32 (≈ 0.637 µM) | 0.33 (≈ 0.657 µM) | 0.34 (≈ 0.677 µM) | 0.29 (≈ 0.577 µM) | 0.42 (≈ 0.836 µM) | 239 to 241 °C | –
5 | – | – | – | – | – | – | – | COc1cc(C2C3=C(COC3=O)N(CCc3ccc(Cl)cc3)c3cc4c(cc32)OCO4)cc(OC)c1OC (stereo not drawn) [Compound 26, 6,7-Methylenedioxy-4-[2-(4-chlorophenyl)-ethyl]-9-(3,4,5-trimethoxyphenyl)-4,9-dihydro-3H-furo[3,4-b]quinolin-1-one] | 2.6 (≈ 4.85 µM) | 0.54 (≈ 1.01 µM) | 0.34 (≈ 0.634 µM) | 0.35 (≈ 0.653 µM) | 0.3 (≈ 0.56 µM) | 0.37 (≈ 0.69 µM) | 0.31 (≈ 0.578 µM) | 170 to 173 °C | –
6 | – | – | – | – | – | – | – | COc1cc(C2C3=C(COC3=O)N(C3CCCC3)c3cc4c(cc32)OCO4)cc(OC)c1OC (stereo not drawn) [Compound 18, 6,7-Methylenedioxy-4-(cyclopentyl)-9-(3,4,5-trimethoxyphenyl)-4,9-dihydro-3H-furo[3,4-b]quinolin-1-one] | 15.3 (≈ 32.9 µM) | 0.083 (≈ 0.178 µM) | 0.045 (≈ 0.0967 µM) | 0.062 (≈ 0.133 µM) | 0.16 (≈ 0.344 µM) | 0.12 (≈ 0.258 µM) | 0.27 (≈ 0.58 µM) | 221 to 223 °C | –
7 | – | – | – | – | – | – | – | COc1cc(C2C3=C(COC3=O)N(Cc3ccc(F)cc3)c3cc4c(cc32)OCO4)cc(OC)c1OC (stereo not drawn) [Compound 23, 6,7-Methylenedioxy-4-(4-fluoro-benzyl)-9-(3,4,5-trimethoxyphenyl)-4,9-dihydro-3H-furo[3,4-b]quinolin-1-one] | 1.9 (≈ 3.76 µM) | 0.046 (≈ 0.091 µM) | 0.037 (≈ 0.0732 µM) | 0.03 (≈ 0.0593 µM) | 0.031 (≈ 0.0613 µM) | 0.033 (≈ 0.0653 µM) | 0.047 (≈ 0.093 µM) | 246 to 247 °C | –
8 | – | – | – | – | – | – | – | COc1cc(C2C3=C(COC3=O)N(CCN3CCOCC3)c3cc4c(cc32)OCO4)cc(OC)c1OC (stereo not drawn) [Compound 22, 6,7-Methylenedioxy-4-(2-morpholin-4-yl-ethyl)-9-(3,4,5-trimethoxyphenyl)-4,9-dihydro-3H-furo[3,4-b]quinolin-1-one] | 2.6 (≈ 5.09 µM) | 3.5 (≈ 6.86 µM) | 0.89 (≈ 1.74 µM) | 2.6 (≈ 5.09 µM) | 3 (≈ 5.88 µM) | 2.5 (≈ 4.9 µM) | 2 (≈ 3.92 µM) | 186 to 189 °C | –
9 | – | – | – | – | – | – | – | COc1cc(C2C3=C(COC3=O)N(CCCO)c3cc4c(cc32)OCO4)cc(OC)c1OC (stereo not drawn) [Compound 14, 6,7-Methylenedioxy-4-(3-hydroxy-propyl)-9-(3,4,5-trimethoxyphenyl)-4,9-dihydro-3H-furo[3,4-b]quinolin-1-one] | 0.28 (≈ 0.615 µM) | 0.48 (≈ 1.05 µM) | 0.34 (≈ 0.746 µM) | 0.36 (≈ 0.79 µM) | 0.33 (≈ 0.725 µM) | 0.38 (≈ 0.834 µM) | 0.49 (≈ 1.08 µM) | 269 to 272 °C (dec.) | –
10 | – | – | – | – | – | – | – | COc1cc(C2C3=C(COC3=O)Nc3cc4c(cc32)OCO4)cc(OC)c1OC (stereo not drawn) [Compound 15e, 6,7-Methylenedioxy-9-(3,4,5-trimethoxyphenyl)-4,9-dihydro-3H-furo[3,4-b]quinolin-1-one] | – | – | – | – | – | – | – | 273 to 275 °C | 0.0018
11 | – | – | – | – | – | – | – | COc1cc(C2C3=C(COC3=O)N(CCc3ccc([N+](=O)[O-])cc3)c3cc4c(cc32)OCO4)cc(OC)c1OC (stereo not drawn) [Compound 27, 6,7-Methylenedioxy-4-[2-(4-nitrophenyl)-ethyl]-9-(3,4,5-trimethoxyphenyl)-4,9-dihydro-3H-furo[3,4-b]quinolin-1-one] | 34.8 (≈ 63.7 µM) | 0.39 (≈ 0.714 µM) | 0.08 (≈ 0.146 µM) | 0.2 (≈ 0.366 µM) | 0.3 (≈ 0.549 µM) | 0.26 (≈ 0.476 µM) | 0.3 (≈ 0.549 µM) | 188 to 190 °C | –
12 | – | – | – | – | – | – | – | COc1cc(C2C3=C(COC3=O)N(C3CCC3)c3cc4c(cc32)OCO4)cc(OC)c1OC (stereo not drawn) [Compound 17, 6,7-Methylenedioxy-4-(cyclobutyl)-9-(3,4,5-trimethoxyphenyl)-4,9-dihydro-3H-furo[3,4-b]quinolin-1-one] | 0.24 (≈ 0.532 µM) | 0.04 (≈ 0.0886 µM) | 0.026 (≈ 0.0576 µM) | 0.026 (≈ 0.0576 µM) | 0.028 (≈ 0.062 µM) | 0.032 (≈ 0.0709 µM) | 0.047 (≈ 0.104 µM) | 224 to 226 °C | –
13 | – | – | – | – | – | – | – | COc1cc(C2C3=C(COC3=O)N(C3CCCCC3)c3cc4c(cc32)OCO4)cc(OC)c1OC (stereo not drawn) [Compound 19, 6,7-Methylenedioxy-4-(cyclohexyl)-9-(3,4,5-trimethoxyphenyl)-4,9-dihydro-3H-furo[3,4-b]quinolin-1-one] | 3.4 (≈ 7.09 µM) | 0.17 (≈ 0.355 µM) | 0.052 (≈ 0.108 µM) | 0.066 (≈ 0.138 µM) | 0.27 (≈ 0.563 µM) | 0.24 (≈ 0.5 µM) | 0.27 (≈ 0.563 µM) | 235 to 237 °C | –
14 | 2 (≈ 4.53 µM) | 0.6 (≈ 1.36 µM) | 0.37 (≈ 0.838 µM) | 0.41 (≈ 0.929 µM) | 0.58 (≈ 1.31 µM) | 0.52 (≈ 1.18 µM) | 1.3 (≈ 2.94 µM) | COc1cc(C2C3=C(COC3=O)N(CCO)c3cc4c(cc32)OCO4)cc(OC)c1OC (stereo not drawn) [Compound 13, 6,7-Methylenedioxy-4-(2-hydroxy-ethyl)-9-(3,4,5-trimethoxyphenyl)-4,9-dihydro-3H-furo[3,4-b]quinolin-1-one] | – | – | – | – | – | – | – | – | –
